Where two headings read alike, the source gives them in different places.

Data on one compound can be found in patent publication US11779572B1, “Methods of treating gastrointestinal stromal tumors” (Deciphera Pharmaceuticals, LLC, priority 2022, dated 2023).

Data set [1] in a line: Observed clinical PK after single and multiple doses. The format is in vivo. The settings on record: human, plasma, oral; SD administration, healthy participants. On the procedure: CYP3A4 inactivation parameters and induction parameters were subsequently incorporated in the model to assess the net effect on drug clearance at steady state. Due to the uncertainty in the in vitro CYP3A4 MBI data and CYP3A4 induction data, a series of sensitivity analysis was performed. […] Therefore, the in vitro CYP3A4 interaction data were used in the final model. The simulated profiles of ripretinib and DP-5439 in virtual participants were compared to the clinical data. […] The predicted mean AUC0-12 values for DP-5439 on Day 1 were within 2-fold (majority within 1.5-fold) of the observed values, except for the 250-mg QD dose. The mean AUC0-12 and Cmax values for DP-5439 on Day 15 were under-predicted. […] For example, the reported AUCs for ripretinib and DP-5439 at the 150-mg QD dose level were 1.66 and 5.29, respectively. […] The mechanisms for the accumulation of DP-5439 were unclear.

The nature of data set [2]: PBPK model of ripretinib and DP-5439 (Simcyp Simulator).
From the text: A PBPK model that included a mechanistic absorption model was developed.
Thus, potential auto-induction and auto-inhibition effects were captured within the model.
Single dose (SD) PK data from participants with mild, moderate, and severe HI were used to refine and/or verify the PBPK model. […] Subsequently, the corresponding plasma concentration-time profiles in HI participants were likewise simulated and compared to the observed data.
Predictions of plasma drug concentration-time profiles, clearance and DDIs were performed in the Simcyp Simulator using a population of virtual participants. The default healthy participant population was applied in all simulations involving healthy participants. […] With the exception of demographic data, all parameter values for the healthy participant population were the same as those used for the North European Caucasian population.
For simulations involving cancer participants, the North European Caucasian population was used to accommodate the wider age range observed in this population (19 to 87 years old; median 61 years). Weibull age distribution was applied with alpha and beta values of 5.47 and 66.5 years for male participants and 5.22 and 68.57 years for female participants. Age, height and weight distributions for the simulated virtual participant population were consistent with those from the first-in-human dose-escalation study in cancer patients.
For simulations involving participants with HI, 3 population models have been developed for the Simcyp Simulator and are based on the 3 Child-Pugh categories (CP-A, CP-B and CP-C). […] When reduced hepatic size was also taken into account, overall CYP3A4 expression in CP-A, CP-B and CP-C participants was reduced to 69%, 36% and 20%, respectively, to that of healthy participants.
The nature of data set [3]: Unbound fraction / plasma protein binding. The format is in vitro ADME, human. The settings on record: human, plasma, oral, 50 mg, read-out: unbound fraction fu %. An excerpt: (§1) Both ripretinib and DP-5439 display high binding to plasma proteins in vitro; therefore, clinical samples were collected to investigate the effect of HI on the unbound fraction (fu) % for both analytes. Distributions of individual mean fu % for both ripretinib and DP-5439 show high variability between participants. The ripretinib mean fu % was ≤0.6% in healthy participants and in participants with hepatic impairment. The DP-5439 fu % was ≤0.5% in healthy participants and 0.2% to 1.4% in participants with hepatic impairment. No clear trend could be established between unbound ripretinib and DP-5439 PK parameters and the degrees of HI.

A further data set concerns plasma proteins. In words: Unbound fraction / plasma protein binding. The format is in vitro ADME, human.
From the text: as §1

Data set [4] can be described thus: Coadministration with pantoprazole (proton-pump inhibitor). In kind it is in vivo, human. The settings on record: 40 mg QD pantoprazole with 150 mg QD ripretinib. The method, then:
The effect of a proton-pump inhibitor on the exposure of ripretinib was evaluated.

Data set [5] can be described thus: Food effect (high-fat meal) on exposure. The format is in vivo, human. The settings on record: 150 mg dose of ripretinib. On the procedure:
The effect of a high-fat breakfast on ripretinib and Compound A exposure was evaluated. A high fat meal consisted of approximately 150, 250, and 500-600 calories from protein, carbohydrate, and fat, respectively. […] The food effect is not considered to be clinically significant based on exposure-response analysis. Therefore, ripretinib may be taken with or without food at approximately same time each day.

For orientation: half-life means how long it takes for the measured level to halve. A lower half-life goes with rapid decline. By fraction unbound is commonly meant free concentration divided by total concentration. The compound `CCn1c(=O)c(-c2cc(NC(=O)Nc3ccccc3)c(F)cc2Br)cc2cnc(N)cc21` [Compound A] showed a half-life in data set [1] of roughly 1020 min. In addition, in data set [2] (150 mg QD dose), the “all predictions relative to observed” value is reported as no more than 2 fold. Besides, the “predicted mean AUC0-12 relative to observed values” in data set [2] (Day 1, except 250-mg QD dose) is recorded as no more than 2 fold. For the same compound, the fraction unbound in data set [3] (healthy participants) was no more than 0.005. Further, in data set [3] (participants with hepatic impairment), the fraction unbound is 0.002 to 0.014. The “binding to plasma proteins” value with plasma proteins (in vitro) is on record as “high binding”. Besides, the “impact of HI (albumin, ALP, ALT, AST, bilirubin changes) on unbound exposure” value with plasma proteins (visual assessment) is reported as “did not appear to have an impact”. The “plasma exposure when ripretinib is coadministered with pantoprazole” value in data set [4] is given as “No clinically significant differences”. In data set [5], the “AUC0-24h higher with a high-fat meal” value turned out to be 47% and the “Cmax higher with a high-fat meal” value stood at 66%.
